# PubChem BioAssay AID449749 (Broad Institute, 2010)
# Results filed as inconclusive are left out. Calls of active or inactive are those of the source. The rule behind the calls is not given here.
# Biological target: Replicative DNA helicase DnaB (Mycobacterium tuberculosis (strain ATCC 25618 / H37Rv)) (UniProt P9WMR3)
# Test: DnaB intein splicing inhibitors, dose response, biochemical, M. tuberculosis H37Rv, cell-free fluorescence (AID 449749)
# Replicative DNA helicase DnaB (Mycobacterium tuberculosis (strain ATCC 25618 / H37Rv)), sequence (P9WMR3 whole entry, looked up): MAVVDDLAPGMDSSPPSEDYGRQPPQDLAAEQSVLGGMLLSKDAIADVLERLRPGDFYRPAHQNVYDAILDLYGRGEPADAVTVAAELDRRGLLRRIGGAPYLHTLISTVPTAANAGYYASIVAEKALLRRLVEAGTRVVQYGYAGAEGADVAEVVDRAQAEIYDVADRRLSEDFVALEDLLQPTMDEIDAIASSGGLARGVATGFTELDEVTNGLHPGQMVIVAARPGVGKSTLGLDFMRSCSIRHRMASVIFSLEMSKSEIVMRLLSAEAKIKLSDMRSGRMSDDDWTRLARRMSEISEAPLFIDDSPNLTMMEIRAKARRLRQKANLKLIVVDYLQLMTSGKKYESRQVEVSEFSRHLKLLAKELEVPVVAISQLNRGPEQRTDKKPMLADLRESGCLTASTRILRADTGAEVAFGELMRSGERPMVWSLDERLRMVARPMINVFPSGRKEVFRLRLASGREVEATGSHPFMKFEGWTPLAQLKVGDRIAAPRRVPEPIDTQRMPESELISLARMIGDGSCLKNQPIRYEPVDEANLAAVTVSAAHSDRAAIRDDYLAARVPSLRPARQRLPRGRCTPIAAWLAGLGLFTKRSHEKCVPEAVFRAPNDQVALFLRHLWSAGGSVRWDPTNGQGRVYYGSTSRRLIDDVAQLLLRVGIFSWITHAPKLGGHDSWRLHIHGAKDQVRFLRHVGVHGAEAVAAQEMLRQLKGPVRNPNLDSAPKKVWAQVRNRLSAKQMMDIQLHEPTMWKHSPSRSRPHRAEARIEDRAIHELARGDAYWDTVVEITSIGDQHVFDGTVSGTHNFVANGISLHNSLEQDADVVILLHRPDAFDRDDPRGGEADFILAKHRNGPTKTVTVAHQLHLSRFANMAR
row,Compound,AC50
1,Cc1[nH][nH]c(=O)c1[C@@H](c1ccccc1[N+](=O)[O-])C(C#N)C#N,> 38 µM (inactive)
2,Oc1cc(O)c2c(c1)O[C@H](c1ccc(O)c(O)c1)[C@H](O)C2,> 38 µM (inactive)
3,COc1ccc2ccc3c(c2c1)N=C[C@]1(O3)N(C)c2ccccc2C1(C)C,> 38 µM (inactive)
4,Cc1[nH][nH]c(=O)c1C(c1ccccc1[N+](=O)[O-])C(C#N)C#N (centres undefined),> 12 µM (inactive)
